Species on record: Rattus norvegicus
Assay: Open TG-GATES - Regimen: Single
Type: toxicity, organism-based, Sprague-Dawley
Parameters: regimen Single, gender Male, age 6 weeks
Conditions: in vivo, po, 100 mg/kg, route gavage, dose level Low; for APTT / Bas / Eos / Fbg / Hb / Ht / Lym / MCH / MCHC / MCV / Mono / Neu / PT / Plat / RBC / Ret / WBC: tissue Blood; for KIDNEY_L / KIDNEY_R / KIDNEY_TOTAL: tissue Kidney; for LIVER: tissue Liver; for A/G / ALP / ALT / AST / BUN / CRE / Ca / Cl / DBIL / GLC / IP / K / LDH / Na / PL / RALB / TBIL / TC / TG / TP / gamma-GTP: tissue Plasma

## COc1ccc(Cl)cc1C(=O)NCCc1ccc(S(=O)(=O)NC(=O)NC2CCCCC2)cc1 [GLYBURIDE]
3 h
  TERMINAL_BW: 218.6 g
  APTT: 19.3 s
  Bas: 0%
  Eos: 1%
  Fbg: 215.8 mg/dL
  Hb: 13.2 g/dL
  Ht: 41%
  Lym: 69.8%
  MCH: 20.2 pg
  MCHC: 32.3%
  MCV: 62.6 fL
  Mono: 2.8%
  Neu: 25.4%
  PT: 12.3 s
  Plat: 125.3 x10_4/uL
  RBC: 654.4 x10_4/ul
  Ret: 8.1%
  WBC: 93.1 x10_2/uL
  KIDNEY_L: 0.9 g
  KIDNEY_R: 1 g
  KIDNEY_TOTAL: 1.9 g
  LIVER: 9.7 g
  A/G: 1.6
  ALP: 990.2 IU/L
  ALT: 44.4 IU/L
  AST: 69.4 IU/L
  BUN: 12.8 mg/dL
  CRE: 0.4 mg/dL
  Ca: 10.7 mg/dL
  Cl: 103 meq/L
  DBIL: 0.1 mg/dL
  GLC: 141 mg/dL
  IP: 8.2 mg/dL
  K: 3.7 meq/L
  LDH: 145.6 IU/L
  Na: 140.8 meq/L
  PL: 174.8 mg/dL
  RALB: 3.5 g/dL
  TBIL: 0.2 mg/dL
  TC: 89.8 mg/dL
  TG: 87 mg/dL
  TP: 5.7 g/dL
  gamma-GTP: 1.4 IU/L
6 h
  TERMINAL_BW: 214.4 g
  APTT: 19.6 s
  Bas: 0%
  Eos: 0.8%
  Fbg: 222.6 mg/dL
  Hb: 13.9 g/dL
  Ht: 42.5%
  Lym: 76.2%
  MCH: 20.6 pg
  MCHC: 32.6%
  MCV: 63.3 fL
  Mono: 2.8%
  Neu: 18.8%
  PT: 12.7 s
  Plat: 118.8 x10_4/uL
  RBC: 671.8 x10_4/ul
  Ret: 7.8%
  WBC: 101.9 x10_2/uL
  KIDNEY_L: 0.9 g
  KIDNEY_R: 0.9 g
  KIDNEY_TOTAL: 1.8 g
  LIVER: 9.3 g
  A/G: 1.7
  ALP: 837 IU/L
  ALT: 40.2 IU/L
  AST: 67.4 IU/L
  BUN: 13 mg/dL
  CRE: 0.4 mg/dL
  Ca: 10.7 mg/dL
  Cl: 104.4 meq/L
  DBIL: 0.098 mg/dL
  GLC: 168.6 mg/dL
  IP: 8.6 mg/dL
  K: 3.8 meq/L
  LDH: 136 IU/L
  Na: 141.8 meq/L
  PL: 145.2 mg/dL
  RALB: 3.5 g/dL
  TBIL: 0.2 mg/dL
  TC: 72.2 mg/dL
  TG: 64.8 mg/dL
  TP: 5.6 g/dL
  gamma-GTP: 1.2 IU/L
9 h
  TERMINAL_BW: 211.4 g
  APTT: 19.7 s
  Bas: 0%
  Eos: 1%
  Fbg: 223.4 mg/dL
  Hb: 13.4 g/dL
  Ht: 41.4%
  Lym: 79.8%
  MCH: 20.5 pg
  MCHC: 32.5%
  MCV: 63.2 fL
  Mono: 3%
  Neu: 15.6%
  PT: 12.9 s
  Plat: 122.6 x10_4/uL
  RBC: 654.8 x10_4/ul
  Ret: 8.2%
  WBC: 77.5 x10_2/uL
  KIDNEY_L: 0.9 g
  KIDNEY_R: 0.9 g
  KIDNEY_TOTAL: 1.9 g
  LIVER: 8.7 g
  A/G: 1.6
  ALP: 982.4 IU/L
  ALT: 30.2 IU/L
  AST: 69.2 IU/L
  BUN: 12.4 mg/dL
  CRE: 0.4 mg/dL
  Ca: 10.3 mg/dL
  Cl: 104.2 meq/L
  DBIL: 0.084 mg/dL
  GLC: 153.8 mg/dL
  IP: 10.4 mg/dL
  K: 3.4 meq/L
  LDH: 136.6 IU/L
  Na: 142.4 meq/L
  PL: 143 mg/dL
  RALB: 3.4 g/dL
  TBIL: 0.1 mg/dL
  TC: 79.6 mg/dL
  TG: 42 mg/dL
  TP: 5.6 g/dL
  gamma-GTP: 1 IU/L
24 h
  TERMINAL_BW: 227.7 g
  APTT: 18.4 s
  Bas: 0.4%
  Eos: 1%
  Fbg: 211.8 mg/dL
  Hb: 13 g/dL
  Ht: 37.6%
  Lym: 76.8%
  MCH: 21.7 pg
  MCHC: 34.5%
  MCV: 62.9 fL
  Mono: 3.2%
  Neu: 18.8%
  PT: 13.1 s
  Plat: 119.3 x10_4/uL
  RBC: 599 x10_4/ul
  Ret: 7.1%
  WBC: 83.2 x10_2/uL
  KIDNEY_L: 1 g
  KIDNEY_R: 0.9 g
  KIDNEY_TOTAL: 1.9 g
  LIVER: 9.5 g
  A/G: 1.7
  ALP: 950.8 IU/L
  ALT: 35.4 IU/L
  AST: 68.4 IU/L
  BUN: 14.6 mg/dL
  CRE: 0.4 mg/dL
  Ca: 10.7 mg/dL
  Cl: 103.4 meq/L
  DBIL: 0.09 mg/dL
  GLC: 212.4 mg/dL
  IP: 7.9 mg/dL
  K: 3.5 meq/L
  LDH: 174.2 IU/L
  Na: 142.2 meq/L
  PL: 136 mg/dL
  RALB: 3.4 g/dL
  TBIL: 0.1 mg/dL
  TC: 72.2 mg/dL
  TG: 67.4 mg/dL
  TP: 5.4 g/dL
  gamma-GTP: 1.4 IU/L

— ChEMBL document CHEMBL3885861, “Open TG-GATES”
